Article PMC7546441 (Nature chemical biology, 2019)

Assays:
XenA = XenA (Pseudomonas putida, UniProt Q9R9V9); experiment: initial rate, absorbance at […] nm; format: biochemical; conditions: 0.2 mM NMNH, 5 mM ketoisophorone, 200 mM phosphate pH 7.5, 37 °C
Bs GDH = Bs GDH (Bacillus subtilis, UniProt P12310); experiment: full steady-state kinetics, ordered bi-bi fit, […] nm; format: biochemical; conditions: cofactor and glucose varied, 35 mM Tris-HCl pH 8.0, 25 °C
Sequence of Bs GDH (P12310 whole entry): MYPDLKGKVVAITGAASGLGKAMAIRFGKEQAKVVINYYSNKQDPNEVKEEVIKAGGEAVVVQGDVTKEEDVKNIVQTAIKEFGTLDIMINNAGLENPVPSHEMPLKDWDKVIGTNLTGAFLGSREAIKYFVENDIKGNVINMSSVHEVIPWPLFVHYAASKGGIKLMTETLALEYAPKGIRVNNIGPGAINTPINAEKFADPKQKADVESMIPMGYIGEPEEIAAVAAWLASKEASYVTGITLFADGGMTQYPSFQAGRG

Structure (SMILES)	initial rate, absorbance at 340 nm (XenA)	KB (Bs GDH)
NC(=O)C1=CN([C@@H]2O[C@H](COP(=O)(O)O)[C@@H](O)[C@H]2O)C=CC1 [NMNH]	reduced NMN^+ (NMNH) was also well accepted by XenA	
OC[C@H]1OC(O)[C@H](O)[C@@H](O)[C@@H]1O (stereo partly drawn) [D-glucose]		KA and KB are Michaelis constants for cofactor and substrate, respectively
